# Test results: US5108916A, “Process for stereoselectively hydrolyzing, transesterifying or esterifying with immobilized isozyme of lipase from Candida rugosa” (priority 1989, dated 1992)
# Values joined by “and” are separate entries in the source; they are usually repeats but may differ in a detail not shown here. Equal entries are not always repeated. Where two headings read alike, the source gives them in different places.
# Key:
# CSC-2 = assay: Effect of additives and solvents on hydrolysis of ketoprofen monoglyceride by CSC-2; assay type: biochemical, Candida rugosa
# Experimental: Hydrolysis of ketoprofen-monoglyceride (50mg) was carried out in various DMF-100mM (NH4)H2 PO4 buffer (pH 5.5) mixtures. In each flask a solution of ketoprofen monoglyceride (50mg) in DMF (200ul) was added. DMF was added followed by 100mM (NH4)H2 PO4 buffer. […] After 22 hours, 2%, 5%, and 10% DMF samples were acidified, extracted with CHCl3 (2×10ml) and analyzed. The other samples were analyzed directly as in Example 18. The acid produced decreases with increasing amount of DMF.
# Small amounts of DMF were added to the reaction mixture to increase the solubility of KPG. In all cases 100mM ammonium phosphate buffer (pH 5.5) was used and 2% (v/v) detergents were added and the total volume was 10ml.
# The buffer reaction (entry #2 in the table) contained enzyme in buffer (2 ml) and the buffer only (entry #1 in the table) reaction contained no enzyme.
# The presence of a surfactant like Tween increases the solubility o lipophilic compounds in water. […] Tween 80 was added to make 1% and 2% solution (v/v). Bovine serum albumin (BSA) (10mg) was added to each of two flasks. A solution of 50mg of ketoprofen monoglyceride in 200ul DMF was added to each. After 20 hours at 250 rpm and 35° C. the reaction mixtures were acidified, extracted and analyzed by the usual HPLC procedure as in Example 18.
# Various surfactants were used at 2% of the reaction volume to determine their effect on the enzymatic reaction involving the conversion of ketoprofen monoglyceride (KPG) to ketoprofen (KP). […] Flasks were covered with parafilm and incubated in a 35° C. water bath at 250 rpm, typically overnight. Reactions were stopped by acidification, extracted with CHCl3 (2×10 ml). The %acid and %ee were determined by the method of Example 18. It is to be noted that Hydrophile-Lipophile Balance (HLB) values have no apparent bearing on the ability of the surfactant to enhance the conversion of KPG to KP.
# 75 mg of KPG (in the absence of DMF) was individually weighed into 50 ml Erlenmeyer flasks. […] 9 ml of 100 mM (NH4)H2 PO4, pH 5.5 buffer was added, and the flasks were placed into a 35° C., 250 rpm water bath incubator for 20 hours. The reactions were acidified, extracted with CHCl3 and examined by HPLC as in Example 18. The %ee was determined as per Example 18.
# Various amounts of oleic acid or its esters were added, and the reactions stopped at the times indicated, acidified, extracted with CHCl3 and analyzed as in Example 18.
# An experiment was performed as in Example 41, but using 100, 200 and 500 ul of olive oil to determine if it would enhance the rate of conversion of KPG to KP. […] After 20 hours, all reactions were acidified, extracted with CHCl3 and analyzed by HPLC as in Example 18. The results are given below:
# 50 mg of KPG was weighed into Erlenmeyer flasks. […] Flasks were incubated at 35° C., 250 rpm for 23 hours. The reactions were stopped by acidification, extracted with CHCl3, and analyzed by HPLC as in Example 18. The additive is listed along with its percentage composition of glycerides of oleic acid.
# To determine the problems associated with having oleic acid or oleate. esters in the reaction media, the following experiment was performed. […] Flasks were placed in a 35° C. incubator at 250 rpm, and the reactions were sampled by taking 200 ul aliquots at various time points. These aliquots were analyzed by HPLC (ODS-3 RAC column, CH3 OH: 10 mM (NH4)H2 PO4 (60:40) eluant, 4 ml/min, 254 nm detection) to determine the course of reaction. When approximately 40% acid was produced, the reactions were stopped by placing the flasks in the -70° C. freezer. Two extraction procedures were utilized to determine the best method of isolating S-Ketoprofen free of oleic acid. The first (listed as Extraction Procedure I in the following table) involved first making the solution basic (pH 10) with NaOH, then extracting with hexane, then CHCl3.
# [1] = Conversion of ketoprofen esters in organic solvent/oleic acid media; assay type: biochemical
# Experimental: To optimize the organic solvent used in the presence of oleic acid a variety of organic solvents were used, along with a variety of ketoprofen esters. In this experiment, 50 mg of ketoprofen esters were weighed into flasks, along with 1 ml of oleic acid and 9 ml of an organic solvent. The flasks were capped and incubated at 35° C., 250 rpm, for 10-26 hours before stopping the reaction by first adding 4 ml CHCl3 to solubilize the substrates and products, then filtering through a 0.2 um Gelman Nylaflo filter. Samples were then diluted in methanol and analyzed by HPLC as in Example 18. The experiment was also performed using 200 ul of oleic acid and 10ml buffer, which was acidified, extracted with CHCl3 and analyzed by HPLC as above.
# One ml of oleic acid was added, as was 9 ml of buffer (100 mM (NH4)H2 PO4, pH 5.5) or organic solvent. Flasks were placed into a 35° C. incubator and shaken at 250 rpm for 13 hours. Reaction was stopped by adding 5 ml CHCl3 to solubilize the organic material and filtering the solutions using 0.2 um Gelman Nylaflo membranes to remove the enzyme. Samples were analyzed on an ODS-3 RAC column using CH3 OH:10 mM (NH4)H2PO4 (60:40) as eluant, flow rate 4 ml/min, and detection at 254 nm. %ee was determined by the resolution of diastereomeric amides on the above HPLC system, as per Example 18.
# Lipase MY = assay: Two phase Lipase MY hydrolysis of HPPA-Me in organic solvent/water mixtures; assay type: biochemical, Candida rugosa
# Experimental: A. 75% organic solvent/25% aqueous buffer--Fifty milligrams of R,S-HPPA-Me was combined in 10 ml Scintillation vial with 7.5 ml of organic solvent, 2.5 ml of 50 mM phosphate buffer pH 6.0, and 5 mg Lipase MY. The reactions were placed on shaker and shaken for a period of 0-43 hours with samples being taken at various times.
# B. 25% organic solvent/75% aqueous buffer--Fifty milligrams of R,S-HPPA-Me was combined, in 10 ml Scintillation vial with 2.5 ml of organic solvent, 7.5 ml 50mM phosphate buffer (pH 6.8), and 5 mg Lipase MY. The reactions were shaken for a period of 0-143 hours with samples being taken at various time points.
# The data in Table 2 represents the % conversion and % R-HPPA produced using the indicated organic solvents in a two-phase system wherein 75% […] of the total vehicle (solvent) was water and the balance (25%) was organic solvents.
# [2] = solvent/buffer 1:1 two phase, 26 hours
# [3] = solvent/buffer 1:1 two phase, 26 hours, buffer = 100
# [4] = KPG 50 mg, 100 mg CSC-2 on silica (279-SD-1), 9 ml solvent (or buffer)/1 ml oleic acid, 13 hours
# [5] = Buffer 10 ml, OA 200 ul, enzyme not named in Example 55
# [6] = Hexane 9 ml, OA 1 ml, 10-26 hours
# [7] = Hexane 9 ml, OA 1 ml, * stopped at 10 Hr
# [8] = Isooctane 9 ml, OA 1 ml, * stopped at 10 Hr
molecule,measurement,setting,value
"CC(Cl)(Cl)Cl [1,1,1-Trichloroethane]",EE of S-acid,CSC-2; [2],75%
same,Relative Rate,CSC-2; [3],25
same,% Acid,"[1]; KPEG 50 mg, as E212",0%
same,% ee S-acid,"[1]; KPEG, as E212",0%
same,% Acid,[1]; [4],1%
same,% ee S-acid,"[1]; KPG, as E212",0%
"ClCC(Cl)Cl [1,1,2 trichloroethane]",% R,"Lipase MY; solvent 25%, 43 hr",79%
same,Conversion (ester/acid),"Lipase MY; solvent 25%, 43 hr",29%
same,Relative Rate,"CSC-2; solvent/buffer 1:1 two phase, 16 hour reactions",0
"CC(C(=O)OCC(O)CO)c1cccc(C(=O)c2ccccc2)c1 (stereo not drawn) [Monoglyceride Ester, ketoprofen monoglyceride]",% ee,"[1]; Buffer 10 ml, OA 200 ul",96%
same,% Acid,[1]; [5],26%
same,% Acid,"[1]; CHCl3 9 ml, OA 1 ml",0%
same,% Acid,[1]; [6],47%
same,% ee,[1]; [7],97%
same,% Acid,"[1]; Isooctane 9 ml, OA 1 ml",31%
same,% ee,[1]; [8],96%
same,% Acid,"[1]; Toluene 9 ml, OA 1 ml",0%
COC(=O)C(C)c1cccc(C(=O)c2ccccc2)c1 (stereo not drawn) [Methyl ester],% ee,"[1]; Buffer 10 ml, OA 200 ul",96%
same,% Acid,[1]; [5],2%
same,% Acid,"[1]; CHCl3 9 ml, OA 1 ml",0%
same,% Acid,[1]; [6],0.8%
same,% Acid,"[1]; Isooctane 9 ml, OA 1 ml",2%
same,% ee,[1]; [8],93%
same,% Acid,"[1]; Toluene 9 ml, OA 1 ml",0%
xylenes,% R,"Lipase MY; solvent 25%, 5.3 hr",100%
same,Conversion (ester/acid),"Lipase MY; solvent 25%, 5.3 hr",49%
same,% R,"Lipase MY; solvent 75%, 5.36 hr",89%
same,Conversion (ester/acid),"Lipase MY; solvent 75%, 5.36 hr",41%
same,EE of S-acid,CSC-2; [2],81%
same,Relative Rate,CSC-2; [3],44
CC(C)O [2-propanol],% R,"Lipase MY; solvent 25%, 43 hr",0%
same,Conversion (ester/acid),"Lipase MY; solvent 25%, 43 hr",0%
same,% R,"Lipase MY; solvent 75%, 43 hr",0%
same,Conversion (ester/acid),"Lipase MY; solvent 75%, 43 hr",0%
C1=CCCCC1 [Cyclohexene],EE of S-acid,CSC-2; [2],89%
same,Relative Rate,CSC-2; [3],146
same,% Acid,"[1]; KPEG 50 mg, as E212",3%
same,% ee S-acid,"[1]; KPEG, as E212",52%
same,% Acid,[1]; [4],12%
same,% ee S-acid,"[1]; KPG, as E212",94%
CC(C)CC(C)(C)C [Isooctane],EE of S-acid,CSC-2; [2],96%
same,Relative Rate,CSC-2; [3],214
same,% Acid,"[1]; KPEG 50 mg, as E212",48%
same,% ee S-acid,"[1]; KPEG, as E212",97%
same,% Acid,[1]; [4],39%
same,% ee S-acid,"[1]; KPG, as E212",98%
CC(C)=O [acetone],% R,Lipase MY,0%
same,Conversion (ester/acid),Lipase MY,0%
CCO [ethyl alcohol],Conversion (ester/acid),Lipase MY,0%
same,% R,"Lipase MY; solvent 25%, 43 hr",0%
same,% R,"Lipase MY; solvent 75%, 43 hr",0%
"CC(C(=O)OCCO)c1cccc(C(=O)c2ccccc2)c1 (stereo not drawn) [Ethylene Glycol Ester, ketoprofen ethylene glycol]",% ee,"[1]; Buffer 10 ml, OA 200 ul",98%
same,% Acid,[1]; [5],21%
same,% Acid,"[1]; CHCl3 9 ml, OA 1 ml",0%
same,% Acid,[1]; [6],29%
same,% ee,[1]; [7],95%
same,% Acid,"[1]; Isooctane 9 ml, OA 1 ml",47%
same,% ee,[1]; [8],98%
same,% Acid,"[1]; Toluene 9 ml, OA 1 ml",0%
"c1ccc2c(c1)CCCC2 [1,2,3,4-Tetrahydronapthalene]",EE of S-acid,CSC-2; [2],85%
same,Relative Rate,CSC-2; [3],136
same,% Acid,"[1]; KPEG 50 mg, as E212",1%
same,% ee S-acid,"[1]; KPEG, as E212",1%
same,% Acid,[1]; [4],2%
same,% ee S-acid,"[1]; KPG, as E212",68%
"CC(C(=O)OCCCl)c1cccc(C(=O)c2ccccc2)c1 (stereo not drawn) [2-Chloroethyl Ester, 2-chloroethyl ester of ketoprofen]",% ee,"[1]; Buffer 10 ml, OA 200 ul",96%
same,% Acid,[1]; [5],18%
same,% Acid,"[1]; CHCl3 9 ml, OA 1 ml",2%
same,% ee,"[1]; CHCl3 9 ml, OA 1 ml",3%
same,% Acid,[1]; [6],7%
same,% ee,[1]; [7],92%
same,% Acid,"[1]; Isooctane 9 ml, OA 1 ml",18%
same,% ee,[1]; [8],97%
same,% Acid,"[1]; Toluene 9 ml, OA 1 ml",1%
same,% ee,"[1]; Toluene 9 ml, OA 1 ml",< 1%
Fc1ccccc1 [fluorobenzene],% R,"Lipase MY; solvent 25%, 5.3 hr",95%
same,Conversion (ester/acid),"Lipase MY; solvent 25%, 5.3 hr",40%
same,% R,"Lipase MY; solvent 75%, 5.3 hr",86%
same,Conversion (ester/acid),"Lipase MY; solvent 75%, 5.3 hr",29%
CCCCCC [Hexane],EE of S-acid,CSC-2,93%
same,Relative Rate,"CSC-2; pH 5.5, 1560 min",80
same,% Acid,[1],12% and 16%
same,% ee S-acid,[1],94% and 87%
"BrCCBr [1,2-dibromoethane]",% R,"Lipase MY; solvent 25%, 43 hr",73%
same,Conversion (ester/acid),"Lipase MY; solvent 25%, 43 hr",33%
same,% R,"Lipase MY; solvent 75%, 43 hr",57%
same,Conversion (ester/acid),"Lipase MY; solvent 75%, 43 hr",23%
"CC(C(=O)OCCOCCO)c1cccc(C(=O)c2ccccc2)c1 (stereo not drawn) [Diethylene glycol ester, Diethylene Glycol Ester of Ketoprofen]",% ee,"[1]; Buffer 10 ml, OA 200 ul",30%
same,% Acid,[1]; [5],32%
same,% Acid,[1]; [6],56%
same,% ee,[1]; [7],13%
same,% Acid,"[1]; Isooctane 9 ml, OA 1 ml",60%
same,% ee,[1]; [8],17%
C1=CCCCCCC1 [Cyclooctene],EE of S-acid,CSC-2; [2],95%
same,Relative Rate,CSC-2; [3],387
same,% Acid,"[1]; KPEG 50 mg, as E212",16%
same,% ee S-acid,"[1]; KPEG, as E212",92%
same,% Acid,[1]; [4],38%
same,% ee S-acid,"[1]; KPG, as E212",98%
